Results: patent US7994185B2, “Benzene sulfonamide thiazole and oxazole compounds” (Glaxo Smith Kline LLC, priority 2008, dated 2011)
Read-outs that look alike come from different tables or passages of the source.

Experiments:
[1] = test system: Human melanoma cancer cells (SK-MEL-28); experiment: Cell growth inhibition assay (CellTiter-Glo), SK-MEL-28; format: cell-based
[2] = test system: Human colon tumor cells (Colo205); experiment: Cell growth inhibition assay (CellTiter-Glo), Colo205; format: cell-based
Procedure, shortened: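 Read-out was CellTiter-Glo luminescence (total ATP as a cell-number surrogate), expressed as % inhibition against DMSO vehicle wells. Before that, cells grown in RPMI/10% FBS were treated for 3 days at 37 °C with ten 1:3-spaced compound concentrations, final DMSO 0.2%.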

[3] = biological target: T1, BRAFV600E full-length (amino acids 2-766) (Homo sapiens, UniProt P15056, V600E); experiment: B-Raf Accelerated MEK ATPase assay (BRAMA); format: biochemical
T1 construct: His6-tagged BRAFV600E full-length (amino acids 2-766); His6; made in house; host or cells: baculovirus expression system (insect cells)
T1 sequence (P15056 2-766 V600E): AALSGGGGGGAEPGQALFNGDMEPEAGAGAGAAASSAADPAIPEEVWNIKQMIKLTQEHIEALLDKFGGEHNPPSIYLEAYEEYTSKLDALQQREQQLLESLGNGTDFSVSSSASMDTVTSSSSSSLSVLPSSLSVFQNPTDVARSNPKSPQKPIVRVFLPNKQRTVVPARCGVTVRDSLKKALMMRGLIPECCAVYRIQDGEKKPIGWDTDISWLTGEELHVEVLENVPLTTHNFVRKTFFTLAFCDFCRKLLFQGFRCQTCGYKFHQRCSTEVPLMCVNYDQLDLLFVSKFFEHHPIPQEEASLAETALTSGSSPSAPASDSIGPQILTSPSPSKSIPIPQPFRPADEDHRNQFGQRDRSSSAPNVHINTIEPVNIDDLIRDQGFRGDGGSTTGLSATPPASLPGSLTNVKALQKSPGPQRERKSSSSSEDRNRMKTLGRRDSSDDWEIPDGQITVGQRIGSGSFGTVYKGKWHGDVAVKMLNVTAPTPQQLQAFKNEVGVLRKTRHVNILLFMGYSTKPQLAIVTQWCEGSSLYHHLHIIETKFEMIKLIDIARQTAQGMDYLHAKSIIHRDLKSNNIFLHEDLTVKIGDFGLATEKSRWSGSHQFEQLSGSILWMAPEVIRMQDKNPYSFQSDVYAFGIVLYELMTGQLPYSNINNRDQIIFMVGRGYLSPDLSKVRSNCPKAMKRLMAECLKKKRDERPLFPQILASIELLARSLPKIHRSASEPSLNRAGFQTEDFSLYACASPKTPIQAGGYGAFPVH
Procedure, shortened: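 Coupled-enzyme readout: ADP generated by MEK-mediated ATP hydrolysis, uncoupled from ERK phosphorylation, is linked to NADH oxidation through pyruvate kinase and lactate dehydrogenase.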

[4] = SK-MEL-28, 72 h, Table 3a, 3 days incubation, read-out: Activity in SK-MEL-28 Tumor Cells
[5] = COLO 205, 72 h, Table 2a, 3 days incubation, read-out: Activity in Colo205 Tumor Cells
[6] = SK-MEL-28, Table 3b, later runs, average for the one or more runs, categorized, read-out: IC50 for SK-MEL-28
[7] = COLO 205, Table 2b, later runs, average for the one or more runs, categorized, read-out: IC50 for Colo205
[8] = B-Raf pIC50, Table 1b, later runs, average pIC50 for the one or more runs, categorized
[9] = Table 1b, later runs, average pIC50 for the one or more runs, categorized, read-out: B-Raf pIC50 (converted)
[10] = B-Raf Activity, Table 1a, highest pIC50 for the one or more runs, categorized

| Compound | IC50 [1, 4] [nM] | IC50 [2, 5] [nM] | IC50 [3] [nM] | IC50 [1, 6] [nM] | IC50 [2, 7] [nM] | IC50 [3, 8] [nM] | IC50 [3, 9] [nM] | IC50 [3, 10] [nM] |
| --- | --- | --- | --- | --- | --- | --- | --- | --- |
| CS(=O)(=O)N1CCC(Nc2nccc(-c3sc(N4CCOCC4)nc3-c3cccc(NS(=O)(=O)c4cc(F)ccc4F)c3F)n2)CC1 [Example 82, 2,5-Difluoro-N-{2-fluoro-3-[5-(2-{[1-(methylsulfonyl)-4-piperidinyl]amino}-4-pyrimidinyl)-2-(4-morpholinyl)-1,3-thiazol-4-yl]phenyl}benzenesulfonamide] | < 100 | < 100 | < 100 |  |  |  |  |  |
| CCOC(=O)CCc1nccc(-c2sc(C(C)(C)C)nc2-c2cccc(NS(=O)(=O)c3c(F)cccc3F)c2F)n1 [Example 226, ethyl 3-{4-[4-(3-{[(2,6-difluorophenyl)sulfonyl]amino}-2-fluorophenyl)-2-(1,1-dimethylethyl)-1,3-thiazol-5-yl]-2-pyrimidinyl}propanoate] |  |  |  | < 100 | < 100 | ≤ 3.16 |  |  |
| Cc1nccc(-c2sc(C(C)(C)C)nc2-c2c(F)ccc(NS(=O)(=O)c3cccc(F)c3)c2F)n1 [Example 220, N-{3-[2-(1,1-dimethylethyl)-5-(2-methyl-4-pyrimidinyl)-1,3-thiazol-4-yl]-2,4-difluorophenyl}-3-fluorobenzenesulfonamide] |  |  |  | < 100 | < 100 |  | 3.16 to 31.6 |  |
| O=C1CCCN1CCCNc1nccc(-c2sc(N3CCOCC3)nc2-c2cccc(NS(=O)(=O)c3cc(F)ccc3F)c2F)n1 [Example 188] | < 100 | < 100 |  | < 100 | < 100 | ≤ 3.16 |  | < 100 |
| CC(C)c1nc(-c2ccc(F)c(NS(=O)(=O)c3c(F)cccc3F)c2)c(-c2ccnc(NCCN3CCOCC3)n2)s1 [Example 165] | 100 to 1000 | 100 to 1000 |  | 100 to 1000 | 100 to 1000 | 31.6 to 1000 |  |  |
| Nc1nccc(-c2sc(N3CCOCC3)nc2-c2cccc(NS(=O)(=O)N3CCCCC3)c2F)n1 [Example 49, N-{3-[5-(2-Amino-4-pyrimidinyl)-2-(4-morpholinyl)-1,3-thiazol-4-yl]-2-fluorophenyl}-1-piperidinesulfonamide] | 100 to 1000 | 100 to 1000 |  | 100 to 1000 | 100 to 1000 | 31.6 to 1000 |  | 100 to 1000 |
| CC(C)c1nc(-c2ccc(F)c(NS(=O)(=O)c3cc(F)ccc3F)c2)c(-c2ccnc(NC3CCN(C(=O)OC(C)(C)C)CC3)n2)s1 [Example 124] | 100 to 1000 | 100 to 1000 |  | 100 to 1000 | 100 to 1000 | 31.6 to 1000 |  | < 100 |
| CS(=O)(=O)N1CCC(Nc2nccc(-c3sc(C4CCOCC4)nc3-c3ccc(F)c(NS(=O)(=O)c4cc(F)ccc4F)c3)n2)CC1 [Example 70, 2,5-Difluoro-N-{2-fluoro-5-[5-(2-{[1-(methylsulfonyl)-4-piperidinyl]amino}-4-pyrimidinyl)-2-(tetrahydro-2H-pyran-4-yl)-1,3-thiazol-4-yl]phenyl}benzenesulfonamide] | 100 to 1000 | 100 to 1000 |  | 100 to 1000 | 100 to 1000 |  | 3.16 to 31.6 | < 100 |
| CC(=O)NCCNc1nccc(-c2sc(C(C)C)nc2-c2ccc(F)c(NS(=O)(=O)c3c(F)cccc3F)c2)n1 [Example 183] | > 1000 | > 1000 |  | 1000 to 10000 | 1000 to 10000 | 31.6 to 1000 |  | < 100 |
| Nc1nccc(-c2sc(N3CCOCC3)nc2-c2cccc(NS(=O)(=O)c3ccoc3)c2Cl)n1 [Example 266, N-{3-[5-(2-amino-4-pyrimidinyl)-2-(4-morpholinyl)-1,3-thiazol-4-yl]-2-chlorophenyl}-3-furansulfonamide] |  |  |  | < 100 | < 100 | ≤ 3.16 |  |  |
| CC(C)(C)c1nc(-c2cccc(NS(=O)(=O)c3ccoc3)c2Cl)c(-c2ccnc(N)n2)s1 [Example 264, N-{3-[5-(2-amino-4-pyrimidinyl)-2-(1,1-dimethylethyl)-1,3-thiazol-4-yl]-2-chlorophenyl}-3-furansulfonamide] |  |  |  | < 100 | < 100 | ≤ 3.16 |  |  |
| CC(C)(C)c1nc(-c2cccc(NS(=O)(=O)c3cc(F)ccc3F)c2F)c(-c2ccnc(NCCF)n2)s1 [Example 179] | < 100 | < 100 |  | < 100 | < 100 | ≤ 3.16 |  | < 100 |
| CC(C)c1nc(-c2ccc(F)c(NS(=O)(=O)c3cc(F)ccc3F)c2)c(-c2ccnc(NC3CCNCC3)n2)s1 [Example 125] | 100 to 1000 | 100 to 1000 |  | 100 to 1000 | 100 to 1000 |  | 3.16 to 31.6 | < 100 |
| Nc1nccc(-c2sc(C3CCOCC3)nc2-c2cccc(NS(=O)(=O)c3cc(F)ccc3F)c2F)n1 [Example 245, N-{3-[5-(2-amino-4-pyrimidinyl)-2-(tetrahydro-2H-pyran-4-yl)-1,3-thiazol-4-yl]-2-fluorophenyl}-2,5-difluorobenzenesulfonamide] |  |  |  | < 100 | < 100 | ≤ 3.16 |  |  |
| Cc1ccc(F)cc1S(=O)(=O)Nc1cccc(-c2nc(C(C)(C)C)sc2-c2ccnc(N)n2)c1F [Example 53, N-{3-[5-(2-Amino-4-pyrimidinyl)-2-(1,1-dimethylethyl)-1,3-thiazol-4-yl]-2-fluorophenyl}-5-fluoro-2-methylbenzenesulfonamide] | < 100 | < 100 |  | < 100 | < 100 |  | 3.16 to 31.6 | < 100 |
| Cc1nccc(-c2sc(C(C)(C)C)nc2-c2c(F)ccc(NS(=O)(=O)c3cc(F)ccc3F)c2F)n1 [Example 262, N-{3-[2-(1,1-dimethylethyl)-5-(2-methyl-4-pyrimidinyl)-1,3-thiazol-4-yl]-2,4-difluorophenyl}-2,5-difluorobenzenesulfonamide] |  |  |  | < 100 | < 100 | ≤ 3.16 |  |  |
| Nc1nccc(-c2sc(C3CCC3)nc2-c2cccc(NS(=O)(=O)c3c(F)cccc3F)c2Cl)n1 [Example 72, N-{3-[5-(2-Amino-4-pyrimidinyl)-2-cyclobutyl-1,3-thiazol-4-yl]-2-chlorophenyl}-2,6-difluorobenzenesulfonamide] | < 100 | 100 to 1000 |  | < 100 | 100 to 1000 | ≤ 3.16 |  | < 100 |
| CC(C)CNc1nccc(-c2sc(C(C)(C)C)nc2-c2cccc(NS(=O)(=O)c3cc(F)ccc3F)c2Cl)n1 [Example 23, N-[2-Chloro-3-(2-(1,1-dimethylethyl)-5-{2-[(2-methylpropyl)amino]-4-pyrimidinyl}-1,3-thiazol-4-yl)phenyl]-2,5-difluorobenzenesulfonamide] | 100 to 1000 | 100 to 1000 |  | 100 to 1000 | 100 to 1000 |  | 3.16 to 31.6 | < 100 |
| CC(=O)N1CCC(Nc2nccc(-c3sc(C(C)C)nc3-c3ccc(F)c(NS(=O)(=O)c4cc(F)ccc4F)c3)n2)CC1 [Example 77, N-{5-[5-{2-[(1-Acetyl-4-piperidinyl)amino]-4-pyrimidinyl}-2-(1-methylethyl)-1,3-thiazol-4-yl]-2-fluorophenyl}-2,5-difluorobenzenesulfonamide] | < 100 | < 100 |  | < 100 | < 100 |  | 3.16 to 31.6 | < 100 |
| CC(C)c1nc(-c2ccc(F)c(NS(=O)(=O)c3c(F)cccc3F)c2)c(-c2ccnc(NCCCN3CCOCC3)n2)s1 [Example 7, 2,6-Difluoro-N-{2-fluoro-5-[2-(1-methylethyl)-5-(2-{[3-(4-morpholinyl)propyl]amino}-4-pyrimidinyl)-1,3-thiazol-4-yl]phenyl}benzenesulfonamide] | > 1000 | > 1000 |  | 1000 to 10000 | 1000 to 10000 | 31.6 to 1000 |  | 100 to 1000 |
| CC(C)CNc1nccc(-c2sc(N3CCOCC3)nc2-c2cccc(NS(=O)(=O)c3c(F)cccc3F)c2Cl)n1 [Example 20, N-{2-Chloro-3-[5-{2-[(2-methylpropyl)amino]-4-pyrimidinyl}-2-(4-morpholinyl)-1,3-thiazol-4-yl]phenyl}-2,6-difluorobenzenesulfonamide] | < 100 | < 100 |  | < 100 | < 100 | ≤ 3.16 |  | < 100 |
| Cc1nccc(-c2sc(C(C)(C)C)nc2-c2cccc(NS(=O)(=O)c3c(F)cccc3F)c2Cl)n1 [Example 239, N-{2-chloro-3-[2-(1,1-dimethylethyl)-5-(2-methyl-4-pyrimidinyl)-1,3-thiazol-4-yl]phenyl}-2,6-difluorobenzenesulfonamide] |  |  |  | < 100 | < 100 |  | 3.16 to 31.6 |  |
| Nc1nccc(-c2sc(N3CCS(=O)(=O)CC3)nc2-c2cccc(NS(=O)(=O)c3cc(F)ccc3F)c2F)n1 [Example 142] | < 100 | < 100 |  | < 100 | < 100 | ≤ 3.16 |  | < 100 |
